From the supplement of paper PMC11997997

Tests used:
[1] = system: murine bone marrow-derived macrophages; assay: area under cytotoxicity dose-response curve (AUC (% cytotoxicity x dose, relative)); higher = more cytotoxic; conditions: duration: 6 days; dose range: 0.13-80 uM, 8 points
Procedure, shortened: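 Primary murine bone marrow-derived macrophages in opaque 384-well plates were exposed to an 8-point, 2.5-fold dilution series (final 80–0.13 μM) for 6 days at 37 °C in 5% CO2. Viability was read with Promega's CellTiter-Glo luminescence assay, and percent cytotoxicity was normalised to vehicle and positive control wells. Cytotoxicity is reported as the area under the dose–response curve, calculated in GraphPad Prism version 10.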

[2] = system: Mycobacterium tuberculosis CDC1551 (intracellular, in murine BMDM); assay: area under intracellular growth-inhibition dose-response curve (AUC (% inhibition x dose, relative)); higher = more potent; conditions: duration: 6 days; dose range: 0.13-80 uM, 8 points
Procedure, shortened: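 Macrophages derived from primary murine bone marrow were infected for 1 h at multiplicity of infection 1 with luciferase-expressing M. tuberculosis CDC1551, then treated for 6 days at final concentrations of 80–0.13 μM. Bright-Glo luciferin signal, normalised to a reference drug control and the lowest-concentration wells, gave the growth readout. Area under the growth-inhibition dose–response curve was then calculated in GraphPad Prism.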

SMILES	area under cytotoxicity dose-response curve [1]	area under intracellular growth-inhibition dose-response curve [2]
O=C(Nc1ccc(N2CCN(C(=O)c3ccccc3)CC2)cc1)c1ccc([N+](=O)[O-])o1	24.1	127
Cc1ccc(C[n+]2c(-c3ccc(C)cc3)cc(-c3ccc(C)cc3)cc2-c2ccc(C)cc2)cc1.[O-][Cl+3]([O-])([O-])[O-]	59.3	253
Cc1nn(Cc2ccccc2)c(Cl)c1C(=O)NCc1ccco1	16.8	104
Cl.N=C(NCCCCCCNC(=N)NC(=N)Nc1ccc(Cl)cc1)NC(=N)Nc1ccc(Cl)cc1	120	43
O=C(c1ccc([N+](=O)[O-])o1)N1CCN(Cc2ccccc2)CC1	4.42	151
CCC(=O)NC(=S)Nc1ccc(NC(=S)NC(=O)c2ccc(C)cc2)cc1	11.9	265
CCCCNC(=O)Cc1ccc(C)cc1	80.9	115
CNC[C@@H](Cc1ccccc1)NC[C@@H](CC1CCCCC1)NCCCc1ccccc1	61.5	104
O=C(NNC(=S)Nc1ccc(C(=O)O)c(O)c1)c1ccncc1	30.7	170
O=C(CCN1C(=O)S/C(=C/c2ccccc2)C1=O)Nc1ccc(C(=O)O)c(O)c1	156	117
COc1ccc(CCNC(=O)c2cc([N+](=O)[O-])cc([N+](=O)[O-])c2)cc1OC	< 0	243
O=C(CCC1CCCCC1)NCc1cccs1	42.9	187
Cc1nc(SCC(=O)NC2CCCCC2)nc(O)c1C	17.5	30.2
CCCC(C)NC(=O)c1ccc(F)cc1 (configuration not stated)	4.45	248
NC(=S)N/N=C/c1ccc(-c2ccc([N+](=O)[O-])cc2)o1	< 0	217
Cc1ccnc2c1ccc1c(C)ccnc12.O	38.9	199

SMILES	area under cytotoxicity dose-response curve [1]	area under intracellular growth-inhibition dose-response curve [2]
Cc1ccc(C2=NN(C(=O)CCl)C(c3cccs3)C2)o1 (configuration not stated)	25.9	105
Cc1c(Cl)sn(-c2ccc(Cl)cc2)c1=O	60.1	130
CC(C)(C)C(=O)/C=C/Nc1ccccc1O	5.21	88
C/C(=N\NC(N)=S)c1ccc(-n2ccnc2)cc1	69	195
C[C@@H]1C2CC(C/C2=N\NC(=O)c2ccncc2)C1(C)C (some centres not stated)	< 0	260
C/C(=N\NC(N)=S)c1ccccc1	45.3	219
Cc1cc(C)n(CC(=O)NC2C(=O)N3C(C(=O)O)=C(CSc4nnc(C)s4)CSC23)n1 (configuration not stated)	11.2	122
COc1ccc(CCNC(=O)c2cc(-c3ccccn3)nc3ccccc23)cc1	17.5	40.6
COc1c(/C=N/NC(N)=S)c(C)nn1-c1ccccc1	32.6	194
COc1ccc(-c2[nH]ncc2/C=N/NC(=O)c2ccncc2)c(OC)c1	< 0	218
CCN1C(=O)/C(=C\NC2CCCC(C)C2C)SC1=S (configuration not stated)	97.6	226
Br.CCCc1cc(-c2nc(-c3ccc(Cl)cc3)cs2)ccn1	78.3	163
O=C(NC1CCCCCCC1)c1ccc(Br)cc1	< 0	268
CC(C)C(=O)N1CCN(c2ccc(NC(=O)c3ccc([N+](=O)[O-])o3)cc2Cl)CC1	79.8	109
CC(C)c1ccc(CNc2nc3nc4c(c(O)n3n2)CCC4)cc1	< 0	163
